Results from BindingDB's records for doi:10.1021/jm020999w (University of Firenze, 2003).

Target: Gamma-aminobutyric acid receptor subunit alpha-1/beta-2/gamma-2 (Rattus norvegicus, UniProt P62813+P63138+P18508)
Experiment: Binding affinity for recombinant rat GABA-A receptor alpha-1-beta-2-gamma-2 subunits expressed in HEK293 cells

Chain of Gamma-aminobutyric acid receptor subunit alpha-1/beta-2/gamma-2 (P62813 whole entry): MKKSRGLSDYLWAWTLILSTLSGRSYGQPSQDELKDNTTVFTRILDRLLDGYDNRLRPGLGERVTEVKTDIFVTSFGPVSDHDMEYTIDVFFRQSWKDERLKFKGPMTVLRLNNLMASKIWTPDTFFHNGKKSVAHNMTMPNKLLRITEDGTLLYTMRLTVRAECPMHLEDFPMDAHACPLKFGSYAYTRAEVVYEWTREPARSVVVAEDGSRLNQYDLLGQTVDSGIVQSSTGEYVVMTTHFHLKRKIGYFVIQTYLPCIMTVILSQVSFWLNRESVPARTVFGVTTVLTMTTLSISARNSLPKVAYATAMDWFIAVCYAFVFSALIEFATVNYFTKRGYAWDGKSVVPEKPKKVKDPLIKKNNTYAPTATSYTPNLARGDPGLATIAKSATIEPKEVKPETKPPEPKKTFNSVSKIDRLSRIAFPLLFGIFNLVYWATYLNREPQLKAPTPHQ
Chain of Gamma-aminobutyric acid receptor subunit alpha-1/beta-2/gamma-2 (P63138 whole entry): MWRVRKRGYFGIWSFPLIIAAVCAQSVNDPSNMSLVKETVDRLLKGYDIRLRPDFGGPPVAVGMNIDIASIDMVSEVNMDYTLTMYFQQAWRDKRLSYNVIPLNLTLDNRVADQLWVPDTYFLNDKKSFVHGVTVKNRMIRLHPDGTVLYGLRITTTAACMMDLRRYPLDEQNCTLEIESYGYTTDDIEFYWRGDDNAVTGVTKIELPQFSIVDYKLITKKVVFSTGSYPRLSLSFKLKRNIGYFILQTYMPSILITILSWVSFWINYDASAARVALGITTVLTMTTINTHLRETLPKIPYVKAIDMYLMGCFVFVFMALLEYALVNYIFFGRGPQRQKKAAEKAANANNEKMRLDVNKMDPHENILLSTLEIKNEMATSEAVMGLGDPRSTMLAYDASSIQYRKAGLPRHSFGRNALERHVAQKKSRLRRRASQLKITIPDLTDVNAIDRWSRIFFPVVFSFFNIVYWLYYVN
Chain of Gamma-aminobutyric acid receptor subunit alpha-1/beta-2/gamma-2 (P18508 whole entry): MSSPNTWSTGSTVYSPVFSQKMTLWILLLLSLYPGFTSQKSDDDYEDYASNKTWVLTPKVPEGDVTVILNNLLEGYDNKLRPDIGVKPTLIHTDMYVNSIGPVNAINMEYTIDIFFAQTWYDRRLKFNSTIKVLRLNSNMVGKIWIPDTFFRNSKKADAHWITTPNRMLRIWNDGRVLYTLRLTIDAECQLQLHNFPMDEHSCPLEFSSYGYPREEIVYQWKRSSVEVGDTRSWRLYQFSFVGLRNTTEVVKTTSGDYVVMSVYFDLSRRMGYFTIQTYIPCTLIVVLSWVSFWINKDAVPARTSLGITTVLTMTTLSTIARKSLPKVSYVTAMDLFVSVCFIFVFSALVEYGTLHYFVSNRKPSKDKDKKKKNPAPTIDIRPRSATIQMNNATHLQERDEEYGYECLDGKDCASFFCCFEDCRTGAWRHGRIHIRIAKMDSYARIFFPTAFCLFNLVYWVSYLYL

Structure (SMILES) | Ki [nM]
O=c1c(-c2ccsc2)cnc2c(-c3cccc(Br)c3)c[nH]n12 [3-(3-Bromo-phenyl)-6-thiophen-3-yl-4H-pyrazolo[1,5-a]pyrimidin-7-one] | 10
O=c1c(-c2ccsc2)cnc2c(-c3cccc(C(F)(F)F)c3)c[nH]n12 [6-Thiophen-3-yl-3-(3-trifluoromethyl-phenyl)-4H-pyrazolo[1,5-a]pyrimidin-7-one] | 10
